In patent publication US5221732A, “Antimicrobial magainin modified peptides” (priority 1988, dated 1993):
Where no end group is shown, it is not given here.

Legend:
[1] = Circular dichroic measurements; assay type: physicochemical
[2] = test system: Gram-positive and Gram-negative bacteria; test: Antimicrobial assay, overall statements; assay type: cell-based
Description: (§1) The antimicrobial activities of magainin analogues were assayed by macrodilution broth procedure of Jones et al (Jones, R. N., Barry, A. L., Gaven, T. L. and Washington, J. A. in "Manual of Clinical Microbiology", Lennette, D. H. Balows, A., Hausler, W. J. and Shadomy, H. J., eds; fourth edition, American Society for Microbiology, Washington, D.C., 1985) with modifications. Different concentrations of peptides were added to 2 ml of trypticase soy broth (BBL) containing the inocula of the test organisms adjusted to 10^5 and 10^6 CFU/ml. Microbial growth was determined by the increase in OD600, after incubation of the tubes at 35° C. for 6-9 h depending on the growth rate. […] The 50% minimal inhibitory concentration was determined from the plots of growth vs concentration of peptide.

[3] = test system: Escherichia coli (ATCC 25922); test: Antimicrobial assay, macrodilution broth; assay type: cell-based; details: Escherichia coli (25922); for 50% Minimal inhibitory concentration: 50% inhibition of growth; for 100% Minimal inhibitory concentration: complete inhibition of growth
Description: as §1

[4] = test system: Streptococcus agalactiae (ATCC 12386); test: Antimicrobial assay, macrodilution broth; assay type: cell-based; details: Streptococcus agalactiae (12386); for 50% Minimal inhibitory concentration: 50% inhibition of growth; for 100% Minimal inhibitory concentration: complete inhibition of growth
Description: as §1

[5] = test system: Staphylococcus aureus (ATCC 25923) beta-lactamase(-); test: Antimicrobial assay, macrodilution broth; assay type: cell-based; details: Staphylococcus aureus (25923) beta-lactamase(-); for 50% Minimal inhibitory concentration: 50% inhibition of growth; for 100% Minimal inhibitory concentration: complete inhibition of growth
Description: as §1

[6] = test system: Klebsiella pneumoniae (ATCC 13883); test: Antimicrobial assay, macrodilution broth; assay type: cell-based; details: Klebsiella pneumoniae (13883); for 50% Minimal inhibitory concentration: 50% inhibition of growth; for 100% Minimal inhibitory concentration: complete inhibition of growth
Description: as §1

[7] = test system: Staphylococcus aureus (ATCC 29213) beta-lactamase(+); test: Antimicrobial assay, macrodilution broth; assay type: cell-based; details: Staphylococcus aureus (29213) beta-lactamase(+); for 50% Minimal inhibitory concentration: 50% inhibition of growth; for 100% Minimal inhibitory concentration: complete inhibition of growth
Description: as §1

[8] = test system: Streptococcus faecalis (ATCC 29212); test: Antimicrobial assay, macrodilution broth; assay type: cell-based; details: Streptococcus faecalis (29212); for 50% Minimal inhibitory concentration: 50% inhibition of growth; for 100% Minimal inhibitory concentration: complete inhibition of growth
Description: as §1

[9] = test system: Pseudomonas aeruginosa (ATCC 27853); test: Antimicrobial assay, macrodilution broth; assay type: cell-based; details: Pseudomonas aeruginosa (27853); for 50% Minimal inhibitory concentration: 50% inhibition of growth; for 100% Minimal inhibitory concentration: complete inhibition of growth
Description: as §1

[10] = test system: human erythrocyte; test: Erythrocyte hemolysis assay; assay type: cell-based
Description: To 75×12 mm borosilicate test tubes containing a predetermined amount of dried peptide in duplicate, 2.5 ml of diluted human erythrocyte suspension (10%, v/v) in isotonic phosphate-buffered saline was added. After gentle mixing and incubation for 10 min at 37° C., tubes were centrifuged at 3000×g for 10 min. The supernatant was separated from cells and debris, diluted if necessary, and OD350 measured. 100% hemolysis was obtained by using 0.1% Triton X-100.

[11] = 40% CF3CH2OH (trifluoroethanol)

Row | Substance | % structure calculated from CD spectra, alpha-helix ([1]; 50 mM K-phosphate, pH7) [%] | % structure calculated from CD spectra, beta-sheet ([1]; 50 mM K-phosphate, pH7) [%] | % structure calculated from CD spectra, alpha-helix [1, 11] [%] | % structure calculated from CD spectra, beta-sheet [1, 11] [%] | growth inhibition of both Gram-positive and Gram-negative bacteria (in words) [2] | 50% Minimal inhibitory concentration [3] [µg/mL] | 100% Minimal inhibitory concentration [3] [µg/mL] | 50% Minimal inhibitory concentration [4] [µg/mL] | 100% Minimal inhibitory concentration [4] [µg/mL] | 50% Minimal inhibitory concentration [5] [µg/mL] | 100% Minimal inhibitory concentration [5] [µg/mL] | 50% Minimal inhibitory concentration [6] [µg/mL] | 100% Minimal inhibitory concentration [6] [µg/mL] | 50% Minimal inhibitory concentration [7] [µg/mL] | 100% Minimal inhibitory concentration [7] [µg/mL] | 50% Minimal inhibitory concentration [8] [µg/mL] | 100% Minimal inhibitory concentration [8] [µg/mL] | 50% Minimal inhibitory concentration [9] [µg/mL] | 100% Minimal inhibitory concentration [9] [µg/mL] | further results
1 | Ac-GIGKFLHAAKKFAKAFVAEIMNS-NH2 [analogue C] | 0 | 48 | 61 | 14 | active | 10 | 25 | 0.5 | 1 | 10 | 25 | 60 | 100 | 7.5 | 25 | 5 | 25 | > 100 | > 100 | growth inhibitory activity toward Gram-negative bacteria ([2]; effect of acetylation of the alpha-amino terminus, versus analogue B): significantly reduced
2 | GIGKFLHAAKKFAKAFVAEIMNS-NH2 [analogue B] | 2 | 44 | 61 | 9 | active | 1.2 | 2.5 | 0.25 | 1 | 5 | 10 | 5 | 10 | 5 | 10 | 5 | 10 | 15 | 25 | –
3 | GIGKFLHSAGKFGKAFVGEIMKS [Magainin 1, reference compound] | 0 | 44 | 24 | 37 | – | 100 | 250 | 60 | 75 | 360 | > 500 | 100 | 250 | 500 | > 500 | 360 | > 500 | 430 | > 500 | –
4 | GIGKFLHSAKKFAKAFVAEIMNS-NH2 [analogue F] | 1 | 46 | 63 | 6 | active | 1.2 | 5 | 0.25 | 1 | 10 | 25 | 5 | 25 | 5 | 10 | 10 | 25 | 25 | 50 | hemolytic activity (in words, comparative) [10]: lower hemolytic activity; antimicrobial activity ([2]; effect of omission of replacement at Ser8): only slightly
